In patent US20220202912A1, “Polypeptides in Preparation of Drugs for Treatment or Prevention of Rheumatoid Arthritis” (priority 2011, published 2022):
Marks after values point to notes of the source that are not given here. Where no end group is shown, it is not given here.

Key:
[1] = test system: cotton ball granuloma; assay type: in vivo, SD rats; conditions: day 8; 5 mg/kg sc once a day (Dexamethasone, G2)
Experimental: The rats are randomly divided into a model control group, a positive control (dexamethasone) group, and mPEG-SC20k-HM-3 groups using subcutaneous injection at a high dose, a medium dose and a low dose, a total of 5 groups, and the drugs are administered to each group of animals by subcutaneous injection, for 7 days in succession.
Rats in each group are anesthetized with pentobarbital sodium (40 mg/kg) by intraperitoneal injection, and the abdominal coat is cut off. The skin in the middle of the lower abdomen is cut open under aseptic condition, and the incision is about 1 cm long. The subcutaneous tissue is expanded by vascular forceps, and 30 mg of sterile dry cotton balls (weighed accurately by an electronic balance before the test, and undergoing conventional autoclaving and drying for later use) are implanted hypodermically into the groin on one side. The incision is sutured, and an appropriate amount of amoxicillin is sprinkled on the incision to prevent infection.
The drug is administered on the same day after surgery, and is administered for 7 days in succession. On day 8, the rats are killed by cervical dislocation, the cotton balls are removed surgically, the fat tissue is removed, and the […] at 60° C. The mass of granuloma is expressed in mg (granulomatoma)/100 g (body weight). The granuloma mass difference between each administration group and the model control group is compared, and the inhibition rate is calculated. Data statistical analysis is performed on significant differences between the groups.
Inhibition rate (%)=(average granuloma mass of model control group−average granuloma mass of administration group)/average granuloma mass of model control group×100%.

[2] = test system: IL-1β; assay: IL-1β production by mouse peritoneal macrophages (LPS, ELISA); assay type: cell-based, C57BL/6 mice; conditions: 50 μmoL/L, LPS 5 μg/mL, 48 h
Experimental: In the test, mice are divided into […], namely a blank control group, a lipopolysaccharide (LPS) model group, a dexamethasone group, and mPEG-SC20k-HM-3 groups at different doses (0.56, 1.12, 2.25, 4.50, 9.00 μmol/L).
(1) IL-1 production: mice are intraperitoneally injected with 1 mL of broth medium (containing 6% of starch). After three days, mouse peritoneal macrophages are taken aseptically and washed twice with RPMI 1640 medium, and the cell concentration is adjusted to 2×10^6 cells/mL. The cells are injected into a 24-well culture plate, 1 mL per well, and the cells are incubated in a cell incubator for 3 h, and vibrated once every 30 min to make the cells fully adhere. Then the cells are washed twice with culture solution to remove non-adherent cells, are cultured continuously for 48 h after administration, and are centrifuged at 1000 r for 15 min. The supernatant is collected as a sample with IL-1β to be tested. (2) Determination of IL-1 content: various solutions are prepared; tested samples and standard substances with different concentrations (100 μL/well) are added into the corresponding wells, reaction wells are sealed with plate-sealing adhesive tape, and incubation is performed at 37° C. for 90 min; the plate is washed four times; biotinylated antibody working solution (100 μL/well) is added, the reaction wells are sealed with plate-sealing adhesive tape, and incubation is performed at 37° C. for 60 min; the plate is washed four times; enzyme conjugate working solution (100 μL/well) is added, the reaction wells are sealed with plate-sealing adhesive tape, and incubation is performed at 37° C. for 30 min; the plate is washed four times; chromogenic reagent (100 μL/well) is added, and incubation is performed at 37° C. for 10-20 min in the absence of light; stop solution (100 μL/well) is added, and the OD 450 nm absorbance is measured immediately after uniform mixing (within 5 min).

[3] = test system: tumor in BALB/c nude mice; assay: in vivo pharmacodynamics (antitumor) of PEG-modified HM-3 in BALB/c nude mice; conditions: BALB/c nude mice
Excerpt: Four different types of mPEG-ALD and mPEG-SC with different molecular weights are selected to modify the polypeptide […](named HM-3), i.e., mPEG-ALD5k, mPEG-ALD10k, mPEG-SC10k, mPEG-SC20k, and modification reaction conditions are explored and optimized.

[4] = test system: AIA rat models; assay: adjuvant-induced arthritis (AIA) rat models; assay type: in vivo, SD rats; conditions: for therapeutic effect on adjuvant-induced arthritis in rats (conclusion): rat, in vivo
[5] = test system: CIA mouse models; assay: collagen-induced arthritis (CIA) mouse models; assay type: in vivo, DBA/1 mice; conditions: for therapeutic effect on collagen-induced arthritis in mice (conclusion): mouse, in vivo
[6] = Table 2, methotrexate 1 mg/kg, once every 5 days, three times
[7] = Tables 4 and 6, methotrexate 1 mg/kg
[8] = Table 1, methotrexate 1 mg/kg, once every 5 days, three times
[9] = Tables 3 and 5, methotrexate 1 mg/kg
[10] = high dose 0.4 mg/kg twice a day, 10 days
[11] = low dose 0.1 mg/kg twice a day, 10 days
[12] = medium dose 0.2 mg/kg twice a day, 10 days
[13] = high dose 0.8 mg/kg twice a day, 10 days
[14] = low dose 0.2 mg/kg twice a day, 10 days
[15] = medium dose 0.4 mg/kg twice a day, 10 days
[16] = high dose 1.6 mg/kg three times a day, 10 days
[17] = low dose 0.4 mg/kg three times a day, 10 days
[18] = medium dose 0.8 mg/kg three times a day, 10 days
[19] = high dose 3.2 mg/kg twice a day, 10 days
[20] = low dose 0.8 mg/kg twice a day, 10 days (polypeptide II)
[21] = medium dose 1.6 mg/kg twice a day, 10 days

## C[C@@H]1C[C@H]2[C@@H]3CCC4=CC(=O)C=C[C@]4(C)[C@@]3(F)[C@@H](O)C[C@]2(C)[C@@]1(O)C(=O)CO [Dexamethasone, reference compound]
[1]
  Inhibition rate of cotton ball granuloma: 61.59** %
  cotton ball granuloma: 0.11 ± 0.04 mg(cotton ball granuloma)/100 g(weight)
[2]
  IL-1β content: 208.19 ± 13.78 pg/mL
[2]; Mus musculus, Peritoneal macrophage, read-out: Inhibition rate
  inhibition at 50 µM: 79%

## CC(=O)O[C@H]1C(=O)[C@@]2(C)[C@H]([C@H](OC(=O)c3ccccc3)[C@]3(O)C[C@H](OC(=O)[C@H](O)[C@@H](NC(=O)c4ccccc4)c4ccccc4)C(C)=C1C3(C)C)[C@]1(OC(C)=O)CO[C@@H]1C[C@@H]2O [paclitaxel, reference compound]
[3]
  antitumor effect in vivo: 44.50%

## CN(Cc1cnc2nc(N)nc(N)c2n1)c1ccc(C(=O)N[C@@H](CCC(=O)O)C(=O)O)cc1 [positive control, methotrexate, reference compound]
[4]; [6]
  clinical scoring: 5.0 ± 1.0
  swelling of left paw: 3.60 ± 0.72 mm
  swelling of right paw: 0.68 ± 0.19 mm
[4]; [7]
  clinical scoring: 4.00 ± 0.00
  swelling of left paw: 3.23 ± 1.20 mm
  swelling of right paw: 0.13 ± 0.33 mm
[5]; [8]
  clinical scoring: 8.1 ± 1.2
  swelling of joints: 0.76 ± 0.17 mm
  swelling of paws: 0.95 ± 0.19 mm
[5]; [9]
  clinical scoring: 2.33 ± 2.73
  swelling of joints: −0.19 mm
  swelling of paws: 0.21 ± 0.45 mm

## ACDCRGDCFCGGGGIVRRADRAAVP (cysteine pairing not given here) [polypeptide I, No. 1]
[4]; [10]
  clinical scoring: 6.0 ± 1.2
  swelling of left paw: 4.77 ± 0.95 mm
  swelling of right paw: 1.25 ± 0.30 mm
[4]; [11]
  clinical scoring: 5.7 ± 1.1
  swelling of left paw: 4.27 ± 0.85 mm
  swelling of right paw: 1.18 ± 0.31 mm
[4]; [12]
  clinical scoring: 5.3 ± 1.0
  swelling of left paw: 3.81 ± 0.76 mm
  swelling of right paw: 0.79 ± 0.18 mm
[4]
  therapeutic effect on adjuvant-induced arthritis in rats (conclusion): CONCLUSION: polypeptide I has therapeutic effect on adjuvant-induced arthritis in rats
[5]; [13]
  clinical scoring: 10.4 ± 1.6
  swelling of joints: 1.05 ± 0.31 mm
  swelling of paws: 1.29 ± 0.26 mm
[5]; [14]
  clinical scoring: 9.7 ± 1.5
  swelling of joints: 0.93 ± 0.23 mm
  swelling of paws: 1.10 ± 0.22 mm
[5]; [15]
  clinical scoring: 9.1 ± 1.4
  swelling of joints: 0.76 ± 0.17 mm
  swelling of paws: 0.92 ± 0.18 mm
[5]
  therapeutic effect on collagen-induced arthritis in mice (conclusion): CONCLUSION: polypeptide I has therapeutic effect on collagen-induced arthritis in mice

## IVRRADRAAVPGGGGRGD [polypeptide II, No. 2]
[3]
  antitumor effect in vivo: 43.92%
[4]; [16]
  clinical scoring: 7.29 ± 3.40
  swelling of left paw: 4.98 ± 1.97 mm
  swelling of right paw: 1.97 ± 1.56 mm
[4]; [17]
  clinical scoring: 8.29 ± 4.86
  swelling of left paw: 5.03 ± 1.99 mm
  swelling of right paw: 1.56 ± 1.66 mm
[4]; [18]
  clinical scoring: 6.57 ± 4.24
  swelling of left paw: 4.50 ± 1.95 mm
  swelling of right paw: 1.63 ± 1.57 mm
[4]
  therapeutic effect on adjuvant-induced arthritis in rats (conclusion): CONCLUSION: polypeptide II has therapeutic effect on adjuvant-induced arthritis, and its effect is higher than that of polypeptide I.
[5]; [19]
  clinical scoring: 2.67 ± 2.34
  swelling of joints: −0.18 mm
  swelling of paws: 0.23 ± 0.35 mm
[5]; [20]
  clinical scoring: 2.33 ± 3.14
  swelling of joints: −0.19 mm
  swelling of paws: 0.13 ± 0.28 mm
[5]; [21]
  clinical scoring: 5.83 ± 2.93
  swelling of joints: 0.35 mm
  swelling of paws: 0.45 ± 0.41 mm
[5]
  therapeutic effect on collagen-induced arthritis in mice (conclusion): CONCLUSION: polypeptide II has therapeutic effect on collagen-induced arthritis in mice
